The values below come from US20050075358A1, “Methods for treating IGF1R-inhibitor induced hyperglycemia” (priority 2003, published 2005).

A short description of series [1]: acute OGTT study of combination therapy using Metformin and Inhibitor A in rats. It counts as in vivo. The method, then:
FIG. 2: An acute OGTT study to determine the effects of combination therapy using Metformin and Inhibitor A on glucose-lowering was conducted in rats. In order to stabilize glucose levels, food was withdrawn for 1 hr prior to administration of any reagent. Glucose challenge was administered 2 hrs after the administration of Inhibitor A and plasma glucose monitored. Plasma glucose levels increased upon administration of the Inhibitor (200 mpk) to 150 mg/dl prior to glucose challenge and to 250 mg/dl post-glucose challenge.

The next series has as its target T1, insulin receptor (Rattus norvegicus, UniProt P15127).
T1 construct: from tissue; host or cells: whole living rats (in vivo)
Briefly: acute Oral Glucose Tolerance Test (OGTT) in rats. The settings on record: fasted rats, oral single dose 50, 100 and 200 mpk 4 hrs prior to glucose challenge (1 g/kg); glucose at 30, 60, 90, 120 min by glucometer. It counts as in vivo. The method, then: FIG. 1: The effect of inhibition of the insulin receptor was measured using an Oral Glucose Tolerance Test (OGTT). IGF1R Inhibitor A (4-[2-(3-chloro-phenyl)-2-hydroxy-ethylamino]-3-(4-methyl-6-morpholin-4-yl-1H-benzoimidazol-2-yl)-1H-pyridin-2-one) was tested in an acute OGTT study in rats: Fasted rats were orally dosed with Inhibitor A at 50, 100, and 200 mpk as a single dose for 4 hrs prior to glucose challenge (1 g/kg). Glucose was monitored at 30, 60, 90 and 120 minutes post glucose challenge using a glucometer.

T1 sequence (P15127 764-1383 limits assumed): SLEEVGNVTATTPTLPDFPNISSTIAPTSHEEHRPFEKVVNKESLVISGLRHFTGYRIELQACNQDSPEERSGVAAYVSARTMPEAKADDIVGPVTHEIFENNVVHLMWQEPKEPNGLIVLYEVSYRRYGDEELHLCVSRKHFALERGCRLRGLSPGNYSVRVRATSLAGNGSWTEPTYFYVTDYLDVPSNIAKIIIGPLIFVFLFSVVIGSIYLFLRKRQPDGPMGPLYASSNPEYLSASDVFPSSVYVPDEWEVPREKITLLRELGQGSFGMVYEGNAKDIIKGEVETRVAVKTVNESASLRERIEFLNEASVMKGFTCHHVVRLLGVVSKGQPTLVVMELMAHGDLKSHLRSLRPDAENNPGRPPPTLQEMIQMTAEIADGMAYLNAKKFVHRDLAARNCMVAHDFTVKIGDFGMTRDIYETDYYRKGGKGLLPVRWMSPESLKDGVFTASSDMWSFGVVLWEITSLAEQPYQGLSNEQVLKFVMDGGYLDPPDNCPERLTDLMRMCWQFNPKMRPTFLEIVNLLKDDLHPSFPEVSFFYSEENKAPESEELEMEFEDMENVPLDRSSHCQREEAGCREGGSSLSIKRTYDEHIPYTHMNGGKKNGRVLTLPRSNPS
T1 sequence (P15127 27-759 partner limits assumed): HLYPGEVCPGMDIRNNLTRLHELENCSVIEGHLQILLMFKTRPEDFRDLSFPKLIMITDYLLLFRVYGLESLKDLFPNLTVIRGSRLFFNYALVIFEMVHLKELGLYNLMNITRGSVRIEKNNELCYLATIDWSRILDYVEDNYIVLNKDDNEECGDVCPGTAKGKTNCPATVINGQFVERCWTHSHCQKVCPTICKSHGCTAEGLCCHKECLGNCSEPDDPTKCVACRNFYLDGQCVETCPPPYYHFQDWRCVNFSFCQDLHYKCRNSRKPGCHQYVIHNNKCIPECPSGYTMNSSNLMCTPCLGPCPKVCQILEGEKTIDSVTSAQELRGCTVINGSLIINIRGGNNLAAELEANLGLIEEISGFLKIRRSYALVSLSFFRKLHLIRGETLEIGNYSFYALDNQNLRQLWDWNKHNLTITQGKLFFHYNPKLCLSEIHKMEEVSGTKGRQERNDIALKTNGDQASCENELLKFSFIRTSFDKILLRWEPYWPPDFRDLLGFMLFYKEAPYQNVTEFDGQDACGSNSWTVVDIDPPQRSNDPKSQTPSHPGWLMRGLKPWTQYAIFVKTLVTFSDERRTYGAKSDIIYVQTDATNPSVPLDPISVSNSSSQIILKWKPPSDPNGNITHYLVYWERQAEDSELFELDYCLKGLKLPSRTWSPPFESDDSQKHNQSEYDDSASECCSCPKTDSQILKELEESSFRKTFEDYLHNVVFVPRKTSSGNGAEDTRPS

`CN(C)C(=N)N=C(N)N` [Metformin, reference compound]: the “hyperglycemic effects of Inhibitor A after Metformin pretreatment” value in series [1] (rats pretreated for 1 hr with Metformin 450 mpk, then Inhibitor A 200 mpk) is “completely ameliorated”.

`Cc1cc(N2CCOCC2)cc2[nH]c(-c3c(NCC(O)c4cccc(Cl)c4)cc[nH]c3=O)nc12` (stereo not shown) [Inhibitor A, 4-[2-(3-chloro-phenyl)-2-hydroxy-ethylamino]-3-(4-methyl-6-morpholin-4-yl-1H-benzoimidazol-2-yl)-1H-pyridin-2-one]: in series [1] (rats, Inhibitor 200 mpk, glucose challenge 2 hrs after Inhibitor A), the “plasma glucose level post-glucose challenge” value was found to be 250 mg/dL. The “plasma glucose level prior to glucose challenge” value in series [1] (rats, Inhibitor 200 mpk, prior to glucose challenge) is 150 mg/dL. Moreover, the “effect on basal and post-glucose challenge glucose” value at insulin receptor was “more pronounced effect on basal and post-glucose challenge at higher drug concentrations”.
